Assay results: EP3868759A1, “2,3,5-SUBSTITUTED PYRROLO[2,3-B]PYRIDINES AS ERBB MODULATORS USEFUL FOR TREATING CANCER” (PearlRiver Bio GmbH, priority 2020, dated 2021)

Experiments:
[1] = test system: EGFR L858R Ba/F3; assay: CellTiter-Glo cell viability, EGFR L858R Ba/F3; format: cell-based; settings: Mus musculus, BaF3, 72 h, read-out: EGFR L858R Ba/F3 CTG IC50 /
Protocol: (§1) The CellTiter-Glo Luminescent Cell Viability Assay (Promega) is a homogeneous method of determining the number of viable cells in culture. It is based on quantification of ATP, indicating the presence of metabolically active cells. Cells are seeded on day 1 at cell numbers that assure assay linearity and optimal signal intensity. After incubation for 24h in humidified chambers at 37°C and 5% CO2, compounds in DMSO are added at different concentrations. Cells are further incubated for 72 h at 37°C and 5% CO2. Cells treated with the compound vehicle DMSO are used as positive controls and cells treated with 10 µM Staurosporine serve as negative controls. At day 5 the CellTiter Glo Reagent is prepared according to the instructions of the kit (Promega Inc.): Reagent is mixed 1:1 with cell culture medium. Thereon, mixture and assay plates are equilibrated at room temperature for 20 min. Equal volumes of the reagent-medium-mixture is added to the volume of culture medium present in each well. The plates are mixed at ∼200 rpm for 2 minutes on an orbital shaker. The microplates are then incubated at room temperature for 10 minutes for stabilization of the luminescent signal. Following incubation the luminescence is recorded on a Victor microplate reader (Perkin Elmer) using a 200 ms integration time. The data is then analyzed with Excel using the XLFIT Plugin (dose response Fit 205) for IC50-determination. As quality control the Z'-factor is calculated from 16 positive and negative control values. Only assay results showing a Z'-factor ≥ 0.5 are used for further analysis.

[2] = molecular target: T1, HER2 INS YVMA (Homo sapiens, UniProt P04626, INS775YVMA); assay: Lance Kinase Activity Assay, Her2 Exon 20 InsYVMA; settings: biochemical Lance assay
T1 construct: purchased DPF
Protocol: This protocol describes how the Lance Kinase Activity Assay was performed to determine IC50 values of compounds of general formula (I) against HER2 INS YVMA. The principle behind this enzymatic assay is based upon the phosphorylation of the Ulight-peptide substrate. It is detected by using a specific EU-labeled anti-phospho peptide antibody. The binding of the Eu labeled anti-phospho peptide antibody to the phosphorylated ULight labeled peptide gives rise to a FRET-signal. Binding of an inhibitor to the kinase prevents phosphorylation of the Ulight-substrate, resulting in a loss of FRET. In table 2 is summarized the relevant information for the LANCE assay. Table 2: Reagents, stock concentrations and final assay concentrations for Her2 INS YVMA.
The compounds of general formula (I) summarized in Table 3 were serial diluted from a 10 mM DMSO stock solution 1:3 over 8 steps in a total volume of 20 µl. For every sample, 8 µl of kinase-substrate mix was transferred into a suitable assay plate (e.g. Corning #3673). Compound was added via pintool transfer (10nl/well) using a Biomek FX robot (BeckmanCoulter). Reaction was started by addition of 2µl ATP working solution and mixed using variomag teleshaker (Thermo Fischer Scientific). After 1 h incubation at room temperature the reaction was stopped with 10µl detection mix containing the Eu-labeled phosphospecific antibody and 10mM EDTA. After a second incubation period of 1 h at room temperature the FRET signal was measured at 340 nm excitation, 665 nm and 615 nm emission (for the ULight-substrate and Eu-AB, respectively) with an Envision spectrophotometer (Perkin Elmer, Waltham, MA, USA) with 50 µs delay and 300 µs integration time. IC50 values were determined from the sigmoidal dose response curves with the software Quattro Workflow (Quattro GmbH, Munich, Germany).

[3] = test system: A431; assay: CellTiter-Glo cell viability, A431; format: cell-based; settings: Homo sapiens, A-431, 72 h, read-out: A431 CTG IC50
Protocol: as §1

[4] = test system: Her2 Exon 20 InsYVMA Ba/F3; assay: CellTiter-Glo cell viability, Her2 Exon 20 InsYVMA Ba/F3; format: cell-based; settings: Mus musculus, BaF3, 72 h, read-out: Her2 Exon 20 InsYVMA Ba/F3 CTG IC50
Protocol: as §1

[5] = molecular target: EGFR T790M L858R (Homo sapiens, UniProt P00533, L858R/T790M); assay: Lance assay, EGFR T790M L858R; settings: biochemical Lance assay
[6] = molecular target: EGFR (del746-750) (Homo sapiens, UniProt P00533, DEL746-750); assay: Lance assay, EGFR (del746-750); settings: biochemical Lance assay
[7] = test system: EGFR L858R T790M Ba/F3; assay: CellTiter-Glo cell viability, EGFR L858R T790M Ba/F3; format: cell-based; settings: Mus musculus, BaF3, 72 h, read-out: EGFR L858R T790M Ba/F3 CTG IC50 /
Protocol: as §1

[8] = molecular target: EGFR wt (Homo sapiens, UniProt P00533); assay: Lance assay, EGFR wt; settings: biochemical Lance assay
[9] = test system: EGFR Exon 20 InsNPH Ba/F3; assay: CellTiter-Glo cell viability, EGFR Exon 20 InsNPH Ba/F3; format: cell-based; settings: Mus musculus, BaF3, 72 h, read-out: EGFR Exon 20 InsNPH Ba/F3 CTG IC50
Protocol: as §1

[10] = molecular target: EGFR L858R (Homo sapiens, UniProt P00533, L858R); assay: Lance assay, EGFR L858R; settings: biochemical Lance assay
[11] = test system: EGFR vIII Ba/F3; assay: CellTiter-Glo cell viability, EGFR vIII Ba/F3; format: cell-based; settings: Mus musculus, BaF3, 72 h, read-out: EGFR vIII Ba/F3 CTG IC50 /
Protocol: as §1

Sequence of EGFR L858R (P00533 25-1210 L858R): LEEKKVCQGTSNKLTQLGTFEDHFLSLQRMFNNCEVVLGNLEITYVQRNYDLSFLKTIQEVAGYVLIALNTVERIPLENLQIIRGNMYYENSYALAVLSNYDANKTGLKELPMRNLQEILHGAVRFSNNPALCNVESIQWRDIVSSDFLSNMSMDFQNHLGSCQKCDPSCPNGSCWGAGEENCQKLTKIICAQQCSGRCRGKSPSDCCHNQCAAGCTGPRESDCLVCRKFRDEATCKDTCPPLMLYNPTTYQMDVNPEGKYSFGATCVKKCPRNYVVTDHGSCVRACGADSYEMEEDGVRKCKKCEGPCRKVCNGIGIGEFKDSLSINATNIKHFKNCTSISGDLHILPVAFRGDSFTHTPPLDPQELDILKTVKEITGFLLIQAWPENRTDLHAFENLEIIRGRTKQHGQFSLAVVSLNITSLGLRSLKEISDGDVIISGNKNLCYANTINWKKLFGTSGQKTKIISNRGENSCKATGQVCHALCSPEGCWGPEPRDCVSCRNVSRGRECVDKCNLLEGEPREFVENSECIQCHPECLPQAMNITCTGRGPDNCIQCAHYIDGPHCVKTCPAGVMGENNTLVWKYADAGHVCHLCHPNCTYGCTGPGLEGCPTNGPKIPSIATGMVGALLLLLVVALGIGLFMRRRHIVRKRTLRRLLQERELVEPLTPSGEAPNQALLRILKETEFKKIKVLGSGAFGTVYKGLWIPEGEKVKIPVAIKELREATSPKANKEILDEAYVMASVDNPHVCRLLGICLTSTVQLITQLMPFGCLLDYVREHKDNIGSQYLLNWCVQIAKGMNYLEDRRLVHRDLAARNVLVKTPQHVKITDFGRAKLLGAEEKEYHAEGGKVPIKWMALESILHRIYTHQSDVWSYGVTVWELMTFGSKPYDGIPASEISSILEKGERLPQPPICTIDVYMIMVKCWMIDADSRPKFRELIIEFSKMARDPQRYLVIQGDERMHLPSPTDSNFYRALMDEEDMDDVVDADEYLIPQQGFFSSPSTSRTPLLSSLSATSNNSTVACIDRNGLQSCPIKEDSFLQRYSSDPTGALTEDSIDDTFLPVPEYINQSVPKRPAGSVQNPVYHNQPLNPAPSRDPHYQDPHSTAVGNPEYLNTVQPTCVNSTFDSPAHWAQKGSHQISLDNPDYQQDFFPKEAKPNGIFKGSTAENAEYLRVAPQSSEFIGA
Sequence of EGFR T790M L858R (P00533 25-1210 T790M/L858R): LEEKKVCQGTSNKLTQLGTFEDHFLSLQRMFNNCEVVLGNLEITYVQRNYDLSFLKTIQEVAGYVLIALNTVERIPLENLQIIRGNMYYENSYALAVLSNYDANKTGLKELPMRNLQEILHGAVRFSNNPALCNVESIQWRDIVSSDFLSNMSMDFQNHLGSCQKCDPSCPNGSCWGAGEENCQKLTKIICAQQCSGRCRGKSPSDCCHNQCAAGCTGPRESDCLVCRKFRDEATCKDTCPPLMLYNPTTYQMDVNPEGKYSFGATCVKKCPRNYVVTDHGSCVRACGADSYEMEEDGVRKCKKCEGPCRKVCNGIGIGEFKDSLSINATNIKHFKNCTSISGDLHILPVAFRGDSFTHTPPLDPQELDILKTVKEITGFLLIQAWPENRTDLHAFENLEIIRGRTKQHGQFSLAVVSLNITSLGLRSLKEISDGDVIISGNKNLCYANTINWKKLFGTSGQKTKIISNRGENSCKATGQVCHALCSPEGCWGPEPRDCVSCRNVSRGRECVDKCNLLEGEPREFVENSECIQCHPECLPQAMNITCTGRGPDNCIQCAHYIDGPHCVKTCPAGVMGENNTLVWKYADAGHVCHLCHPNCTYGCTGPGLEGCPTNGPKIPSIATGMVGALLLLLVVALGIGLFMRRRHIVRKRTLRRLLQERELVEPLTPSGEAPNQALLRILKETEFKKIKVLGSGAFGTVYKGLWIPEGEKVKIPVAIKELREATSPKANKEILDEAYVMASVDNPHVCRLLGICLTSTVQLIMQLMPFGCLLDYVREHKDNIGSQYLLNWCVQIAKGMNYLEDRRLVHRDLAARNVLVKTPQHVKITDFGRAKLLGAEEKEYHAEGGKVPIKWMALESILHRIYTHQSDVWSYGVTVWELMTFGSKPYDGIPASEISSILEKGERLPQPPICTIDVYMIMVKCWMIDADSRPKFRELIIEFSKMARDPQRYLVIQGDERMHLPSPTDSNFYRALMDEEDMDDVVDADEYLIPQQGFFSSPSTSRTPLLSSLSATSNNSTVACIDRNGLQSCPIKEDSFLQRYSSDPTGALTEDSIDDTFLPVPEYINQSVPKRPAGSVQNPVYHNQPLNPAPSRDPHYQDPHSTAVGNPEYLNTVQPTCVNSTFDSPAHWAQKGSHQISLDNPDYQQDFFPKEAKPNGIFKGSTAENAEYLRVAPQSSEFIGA
Sequence of EGFR wt (P00533 25-1210): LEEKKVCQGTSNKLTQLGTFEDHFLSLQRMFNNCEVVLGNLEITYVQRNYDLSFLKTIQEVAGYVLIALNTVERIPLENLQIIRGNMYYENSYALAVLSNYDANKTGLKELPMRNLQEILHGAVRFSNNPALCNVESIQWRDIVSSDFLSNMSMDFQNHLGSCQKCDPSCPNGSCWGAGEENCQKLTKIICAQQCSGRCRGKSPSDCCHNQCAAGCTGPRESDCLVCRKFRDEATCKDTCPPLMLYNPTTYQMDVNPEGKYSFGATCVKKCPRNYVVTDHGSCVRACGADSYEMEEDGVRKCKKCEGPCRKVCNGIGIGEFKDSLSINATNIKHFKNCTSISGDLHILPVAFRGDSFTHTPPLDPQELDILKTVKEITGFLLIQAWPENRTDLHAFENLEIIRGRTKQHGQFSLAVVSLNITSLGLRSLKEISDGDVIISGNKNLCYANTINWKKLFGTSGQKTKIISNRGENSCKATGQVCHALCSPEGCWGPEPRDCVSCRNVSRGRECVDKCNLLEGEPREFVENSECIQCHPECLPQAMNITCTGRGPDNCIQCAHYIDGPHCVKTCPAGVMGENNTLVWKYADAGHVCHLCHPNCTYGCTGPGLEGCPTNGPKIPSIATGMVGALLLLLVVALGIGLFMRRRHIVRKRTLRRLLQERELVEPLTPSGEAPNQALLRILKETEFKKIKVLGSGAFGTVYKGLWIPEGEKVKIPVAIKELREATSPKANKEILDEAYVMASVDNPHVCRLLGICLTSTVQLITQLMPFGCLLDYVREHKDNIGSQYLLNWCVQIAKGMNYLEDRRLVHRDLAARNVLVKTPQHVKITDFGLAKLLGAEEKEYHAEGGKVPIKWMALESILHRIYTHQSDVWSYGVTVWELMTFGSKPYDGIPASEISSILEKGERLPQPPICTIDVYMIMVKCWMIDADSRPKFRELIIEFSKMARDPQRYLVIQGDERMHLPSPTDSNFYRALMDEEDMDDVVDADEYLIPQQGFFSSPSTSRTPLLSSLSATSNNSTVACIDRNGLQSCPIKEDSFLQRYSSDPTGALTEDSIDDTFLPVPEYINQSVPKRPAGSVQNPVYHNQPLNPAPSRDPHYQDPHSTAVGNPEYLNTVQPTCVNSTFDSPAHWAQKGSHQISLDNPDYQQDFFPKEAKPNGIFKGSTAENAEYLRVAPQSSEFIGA
T1 sequence (P04626 with tags, fused parts or gaps INS775YVMA): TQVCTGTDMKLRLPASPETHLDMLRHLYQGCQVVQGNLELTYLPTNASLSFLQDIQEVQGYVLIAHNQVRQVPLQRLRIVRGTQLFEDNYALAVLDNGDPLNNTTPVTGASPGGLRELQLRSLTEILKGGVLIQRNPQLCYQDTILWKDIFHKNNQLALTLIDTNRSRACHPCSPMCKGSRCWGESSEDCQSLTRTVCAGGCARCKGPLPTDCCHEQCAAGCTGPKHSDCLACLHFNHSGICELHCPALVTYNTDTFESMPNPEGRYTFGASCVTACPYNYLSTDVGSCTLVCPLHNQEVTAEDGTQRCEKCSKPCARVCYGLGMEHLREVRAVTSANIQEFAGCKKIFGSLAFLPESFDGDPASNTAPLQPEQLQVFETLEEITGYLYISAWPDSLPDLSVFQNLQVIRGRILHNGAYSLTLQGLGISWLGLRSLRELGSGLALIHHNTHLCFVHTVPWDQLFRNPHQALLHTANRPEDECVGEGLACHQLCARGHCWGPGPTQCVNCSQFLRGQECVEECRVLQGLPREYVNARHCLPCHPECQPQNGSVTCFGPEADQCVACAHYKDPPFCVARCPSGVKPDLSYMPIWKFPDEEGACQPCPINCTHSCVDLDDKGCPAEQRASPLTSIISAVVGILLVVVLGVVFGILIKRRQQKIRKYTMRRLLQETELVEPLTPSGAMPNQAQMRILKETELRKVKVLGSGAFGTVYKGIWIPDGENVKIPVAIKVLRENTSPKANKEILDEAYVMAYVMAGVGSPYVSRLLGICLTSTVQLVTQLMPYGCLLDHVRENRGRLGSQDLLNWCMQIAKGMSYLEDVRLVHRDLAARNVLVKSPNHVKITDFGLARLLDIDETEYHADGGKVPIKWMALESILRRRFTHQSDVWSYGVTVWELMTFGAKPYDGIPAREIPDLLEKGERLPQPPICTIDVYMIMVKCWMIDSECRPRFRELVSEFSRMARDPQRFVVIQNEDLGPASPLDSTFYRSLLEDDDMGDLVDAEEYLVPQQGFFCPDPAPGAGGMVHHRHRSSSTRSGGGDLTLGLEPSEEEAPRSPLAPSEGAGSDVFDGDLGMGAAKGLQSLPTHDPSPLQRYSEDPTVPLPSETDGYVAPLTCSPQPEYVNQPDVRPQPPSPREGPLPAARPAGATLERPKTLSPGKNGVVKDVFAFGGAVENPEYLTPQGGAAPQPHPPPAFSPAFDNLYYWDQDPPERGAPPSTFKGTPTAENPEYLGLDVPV

Structure (SMILES)	IC50 [1]	IC50 [2]	IC50 [3]	IC50 [4]	IC50 [5]	IC50 [6]	IC50 [7]	IC50 [8]	IC50 [9]	IC50 [10]	IC50 [11]
C=CC(=O)Nc1cc(-c2c(-c3cnn(C)c3)[nH]c3ncc(-c4cnn(C)c4)cc23)ccc1C [Example 26, N-(5-(2,5-bis(1-methyl-1H-pyrazol-4-yl)-1H-pyrrolo[2,3-b]pyridin-3-yl)-2-methylphenyl)acrylamide 2,2,2-trifluoroacetate]	≤ 0.05 µM	0.1 to 0.5 µM	1 to 10 µM	0.1 to 0.5 µM	≤ 0.05 µM	≤ 0.05 µM	0.1 to 0.5 µM	≤ 0.05 µM	0.05 to 0.1 µM	≤ 0.05 µM	≤ 0.05 µM
C=CC(=O)Nc1cc(-c2c(-c3cnn(C)c3)[nH]c3ncc(-c4ccnn4C)cc23)ccc1C [Example 27, N-(2-methyl-5-(2-(1-methyl-1H-pyrazol-4-yl)-5-(-methyl-1 H-pyrazol-5-yl)-1 H-pyrrolo[2,3-b]pyridin-3-yl)phenyl)acrylamide]	≤ 0.05 µM	0.1 to 0.5 µM	1 to 10 µM	0.5 to 1 µM	≤ 0.05 µM	≤ 0.05 µM	0.1 to 0.5 µM	≤ 0.05 µM	0.1 to 0.5 µM	≤ 0.05 µM	≤ 0.05 µM
C=CC(=O)Nc1cc(-c2c(-c3cnn(C)c3)[nH]c3ncc(-c4cnn(CC)c4)cc23)ccc1C [Example 28, N-(5-(5-(1-ethyl-1H-pyrazol-4-yl)-2-(1-methyl-1 H-pyrazol-4-yl)-1 H-pyrrolo[2,3-b]pyridin-3-yl)-2-methylphenyl)acrylamide]	≤ 0.05 µM	0.05 to 0.1 µM	1 to 10 µM	0.1 to 0.5 µM	≤ 0.05 µM	≤ 0.05 µM	0.05 to 0.1 µM	≤ 0.05 µM	≤ 0.05 µM	≤ 0.05 µM	≤ 0.05 µM
C=CC(=O)Nc1cc(-c2c(-c3cnn(C)c3)[nH]c3ncc(-c4cnn(C)c4C)cc23)ccc1C [Example 29, N-(5-(5-(1,5-dimethyl-1H-pyrazol-4-yl)-2-(1-methyl-1 H-pyrazol-4-yl)-1 H-pyrrolo[2,3-b]pyridin-3-yl)-2-methylphenyl)acrylamide]	≤ 0.05 µM	≤ 0.05 µM	0.5 to 1 µM	0.1 to 0.5 µM	≤ 0.05 µM	≤ 0.05 µM	≤ 0.05 µM	≤ 0.05 µM	≤ 0.05 µM	≤ 0.05 µM	≤ 0.05 µM
C=CC(=O)Nc1cc(-c2c(-c3cnn(C)c3)[nH]c3ncc(-c4cn(C)nc4C)cc23)ccc1C [Example 30, N-(5-(5-(1,3-dimethyl-1H-pyrazol-4-yl)-2-(1-methyl-1 H-pyrazol-4-yl)-1 H-pyrrolo[2,3-b]pyridin-3-yl)-2-methylphenyl)acrylamide]	≤ 0.05 µM	0.1 to 0.5 µM	1 to 10 µM	0.5 to 1 µM	≤ 0.05 µM	≤ 0.05 µM	0.1 to 0.5 µM	≤ 0.05 µM	0.1 to 0.5 µM	≤ 0.05 µM	0.1 to 0.5 µM
C=CC(=O)Nc1cc(-c2c(-c3cnn(C)c3)[nH]c3ncc(-c4cnn(C5CC5)c4)cc23)ccc1C [Example 31, N-(5-(5-(1-cyclopropyl-1H-pyrazol-4-yl)-2-(1-methyl-1 H-pyrazol-4-yl)-1 H-pyrrolo[2,3-b]pyridin-3-yl)-2-methylphenyl)acrylamide]	≤ 0.05 µM	0.05 to 0.1 µM	1 to 10 µM	0.1 to 0.5 µM	≤ 0.05 µM	≤ 0.05 µM	≤ 0.05 µM	≤ 0.05 µM	0.05 to 0.1 µM	≤ 0.05 µM	≤ 0.05 µM
